Data published in paper PMC4948780, “PARP Inhibitors in Clinical Use Induce Genomic Instability in Normal Human Cells” (PLoS ONE, 2016).
pIC50: −log10 of the molar value.

Assays:
[1] = system: EBV-BL; test: Survival, trypan blue exclusion test of cell viability; format: cell-based, human
Source text: Human mammary epithelial cell lines used included non-tumorigenic diploid MCF-10A, HMEC-hTERT and tumorigenic MDA-MB-468 (basal) and MCF-7 (luminal). […] Blood samples were obtained from normal donor participants. The participants provided written informed consent to IRB protocol #95–054 approved by the Institutional Review Board at MSKCC. The original signed consent is then sent to the research participant’s medical record and a copy of the consent is given to the participant. The EBV-transformed B-lymphocyte cell line (EBV-BL) was generated by transformation of peripheral blood mononuclear cells (PBMC) with the B95.8 strain of EBV, as previously described. Primary T cells were generated from PBMC from two normal donors by non-specific activation with phytohemagglutinin and cultured in RPMI1640 and human serum AB for 4–14 days before use. E14 mES cell line was provided by M. Hooper, Brca1^-/- 236.44 mES cell line was provided by B. H. Koller, Brca2^lex1/lex2 mES cell line was provided by P. Hasty and Lexicon Genetics. E14 wild-type, Brca1^-/- 236.44, and Brca2^lex1/lex2 mES cell lines were cultured in standard ES media. Brca1^-/- 236.44 cells express a BRCA1 peptide deleted for sequences encoded by exon 11 [52], while Brca2^lex1/lex2 cells express a BRCA2 peptide deleted for the terminal exon 27 [53]. […] Veliparib and BSI-201 were purchased from Chemie Tek. The compounds were dissolved in DMSO and PBS. For clonogenic survival assays, MCF-10A (1000 cells), HMEC-hTERT (1000 cells), MDA-MB-468 (1500 cells) and mouse ES cell (2000 cells) were seeded, vehicle control or inhibitors were added at the indicated concentration 24 hours after seeding and changed every three days for continuous treatment. At 7–14 days, colonies were fixed with methanol and stained with Giemsa. For EBV-BL (6 × 10^6) and primary T cells (3.6 × 10^6) were continuously exposed to the indicated concentration of drug for 10 days at 0.6 × 10^6 cells/ml. Viable cells were scored by trypan blue exclusion.

[2] = system: repair-proficient human cells; test: SCE assay, summary over the human cell types; format: cell-based; details: primary T cells; brief exposure
Source text: (§1) Human mammary epithelial cell lines used included non-tumorigenic diploid MCF-10A, HMEC-hTERT and tumorigenic MDA-MB-468 (basal) and MCF-7 (luminal). […] Blood samples were obtained from normal donor participants. The participants provided written informed consent to IRB protocol #95–054 approved by the Institutional Review Board at MSKCC. The original signed consent is then sent to the research participant’s medical record and a copy of the consent is given to the participant. The EBV-transformed B-lymphocyte cell line (EBV-BL) was generated by transformation of peripheral blood mononuclear cells (PBMC) with the B95.8 strain of EBV, as previously described. Primary T cells were generated from PBMC from two normal donors by non-specific activation with phytohemagglutinin and cultured in RPMI1640 and human serum AB for 4–14 days before use. E14 mES cell line was provided by M. Hooper, Brca1^-/- 236.44 mES cell line was provided by B. H. Koller, Brca2^lex1/lex2 mES cell line was provided by P. Hasty and Lexicon Genetics. E14 wild-type, Brca1^-/- 236.44, and Brca2^lex1/lex2 mES cell lines were cultured in standard ES media. […] Viable cells were scored by trypan blue exclusion.
To prepare metaphase spreads, exponentially growing cells were treated with 0.1–0.3 μg/ml of colcemid for 1–6 hr. […] To visualize SCEs, the doubling time for each cell type was determined. […]

[3] = system: human cells; test: Olaparib cytotoxicity on continuous exposure, summary over cell types; format: cell-based; details: typical value over cell types
Source text: as §1, with “media. Brca1^-/- 236.44 cells express a BRCA1 peptide deleted for sequences encoded by exon 11 [52], while Brca2^lex1/lex2 cells express a BRCA2 peptide deleted for the terminal exon 27 [53].” for “media.”

[4] = patients on the olaparib-treated arm, prior cytotoxic chemotherapy; cited from earlier work
[5] = system: MCF-10A; test: Chromosomal aberrations on metaphase spreads (Giemsa); format: cell-based, human; details: 1 μM, 24 hrs
Method: (§2) To prepare metaphase spreads, exponentially growing cells were treated with 0.1–0.3 μg/ml of colcemid for 1–6 hr. Cells were collected and incubated in hypotonic solution (0.56% KCl), fixed in methanol: acetic acid (3:1), spotted to slides and air-dried. To measure chromosomal aberrations, the slides were stained with 2% Giemsa/Sorensen’s buffer. To visualize SCEs, the doubling time for each cell type was determined. Cells were incubated with 10 μM BrdU for two cell cycles. After metaphase spreads were prepared, the slides were treated with 0.5 μg/ml Hoechst 33258. The slides were exposed to black light for 20–60 min, incubated at 60°C for 2 hr, and stained in 4–10% Giemsa/Sorensen’s buffer.

[6] = system: primary T cell 1; test: as above; format: cell-based, human; details: 1 μM, 24 hrs
Method: as §2

[7] = system: HMEC-hTERT; test: as above; format: cell-based, human; details: 1 μM, 24 hrs
Method: as §2

[8] = system: MCF-7; test: as above; format: cell-based, human; details: 1 μM, 24 hrs
Method: as §2

[9] = system: MDA-MB-468; test: as above; format: cell-based, human; details: 1 μM, 24 hrs
Method: as §2

[10] = system: EBV-BL; test: as above; format: cell-based, human; details: 1 μM, 24 hrs, 100 metaphases
Method: as §2

[11] = 100 metaphases, radial and telomere association counted as two

Which results are given for `O=C(c1cc(Cc2n[nH]c(=O)c3ccccc23)ccc1F)N1CCN(C(=O)C2CC2)CC1` [olaparib]?
survival (mean ± SD) ([1]; EBV-BL, 1 μM): 92.6 ± 7.4%; pIC50 ([1]; Homo sapiens, 240 h, read-out: IC50 (cell survival), EBV-BL, continuous exposure 10 days, trypan blue exclusion): 5.44; average SCEs per metaphase [2]: ~ 40; pIC50 [3]: < 5.70; incidence of myelodysplastic syndrome and acute myelogenous leukemia [4]: 2.2%; total chromatid-type aberrations / metaphase (mean ± SEM) [5]: 0.22 ± 0.05; chromatid-type radial chromosome ([5]; 100 metaphases): 0; chromatid-type telomere association ([5]; 100 metaphases): 1; chromosome-type dicentric ([5]; 100 metaphases): 0; chromosome-type gap/break ([5]; 100 metaphases): 3; total chromatid-type aberrations [5, 11]: 22; total chromatid-type aberrations / metaphase (mean ± SEM) [6]: 0.44 ± 0.07; chromatid-type radial chromosome ([6]; 100 metaphases): 2; chromatid-type telomere association ([6]; 100 metaphases): 0; chromosome-type dicentric ([6]; 100 metaphases): 3; chromosome-type gap/break ([6]; 100 metaphases): 0; total chromatid-type aberrations [6, 11]: 44; total chromatid-type aberrations / metaphase (mean ± SEM) [7]: 0.30 ± 0.07; chromatid-type radial chromosome ([7]; 100 metaphases): 0; chromatid-type telomere association ([7]; 100 metaphases): 0; chromosome-type dicentric ([7]; 100 metaphases): 0; chromosome-type gap/break ([7]; 100 metaphases): 4; total chromatid-type aberrations [7, 11]: 30; total chromatid-type aberrations / metaphase (mean ± SEM) [8]: 1.39 ± 0.14; chromatid-type radial chromosome ([8]; 100 metaphases): 4; chromatid-type telomere association ([8]; 100 metaphases): 1; chromosome-type dicentric ([8]; 100 metaphases): 4; chromosome-type gap/break ([8]; 100 metaphases): 8; total chromatid-type aberrations / metaphase (mean ± SEM) [9]: 0.67 ± 0.13; chromatid-type radial chromosome ([9]; 100 metaphases): 5; chromatid-type telomere association ([9]; 100 metaphases): 3; chromosome-type dicentric ([9]; 100 metaphases): 4; chromosome-type gap/break ([9]; 100 metaphases): 5; total chromatid-type aberrations [9, 11]: 67; chromatid-type radial chromosome [10]: 1; chromatid-type telomere association [10]: 0; chromosome-type dicentric [10]: 0; chromosome-type gap/break [10]: 1; total chromatid-type aberrations ([10]; radial and telomere association counted as two): 44
